{"source": "patent US8435538B2", "about": "“Anti-atheroma vaccine” (Thrombosis Research Institute, priority 2008, dated 2013)", "key": {"hHSP60 peptide": {"test_system": "hHSP60 peptide", "assay": "Peptide-specific antibody response in sera by ELISA after immunization with KLH conjugates, antigen hHSP60 peptide", "type": "in vivo, mice", "source_text": "(§1) Apob^tm2SgyLdlr^tm1Her/J mice were immunized with combinations of ApoB and hHSP epitopes conjugated to keyhole limpet hemocyanin (KLH) as a carrier protein. The peptides were given either in combination, as a bi-specific immunogen, or in a single form, together with complete/incomplete Freund's adjuvant. Mice were fed with high-fat diet for 7 weeks then sacrificed. Peptide-specific antibody responses were detected in the sera by ELISA."}, "[1]": {"test_system": "Apob^tm2Sgy Ldlr^tm1Her/J KO-mice", "assay": "RIMMS immunization, serum IgG titre by ELISA, KO-mouse model", "type": "in vivo", "details": "titre = highest serum dilution giving OD (450 nm) ≧1", "procedure": "The ability of the recombinant immunogens to generate an immune response in BALB/C mice models, C57/BL6 mice models and Apob^tm2Sgy Ldlr^tm1Her/J KO-mice models. Mice were immunized using a repetitive, multiple site immunization strategy (RIMMS). Groups of 10 of 6-8-week-old BALB/c mice were inoculated with 4 μg of recombinant immunogen mixed with Freund's adjuvant 5 times respectively. The immunization was carried out subcutaneously into 8 sites on days 0, 2, 5, 7 and 9. On day 12 and 21 blood sample will be collected to test the antibody response. […]\nSerum samples of immunized and naïve mice were tested for IgG antibodies using OD values at a dilution of 1:100 (or 200) on ELISA plates coated with antigens. Cut-off value for positivity was calculated as mean OD of naïve mouse sera+3×SD. Serum samples showing higher OD on antigen than on control antigen are considered positive, the other is determined by the highest dilution of serum giving an OD reading (at 450 nm)≧1. In this regard, titre can be assessed as non-immunoreactivity (<200), low immunoreactivity (200≦titre<800), good immunoreactivity (800≦titre<3200) and very good immunoreactivity ((titre 3200)"}, "[2]": {"test_system": "Apob^tm2SgyLdlr^tm1Her/J mice", "assay": "Histological analysis of atherosclerotic lesions in the aortic sinus of immunized mice", "type": "in vivo", "source_text": "LDL receptor-deficient mice expressing ApoB-100 were immunized with a combination of two peptides derived from ApoB1 ([…], SEQ ID NO:25) and hHSP60 (AELKKQSKPVT, SEQ ID NO:26).\nas §1\nThe lesions were 14.66% smaller following immunization with ApoB1 peptide alone (FIG. 5B), and 21.15% smaller after immunization with hHSP60 peptide alone (FIG. 5C) than in control mice."}, "ApoB1 peptide": {"test_system": "ApoB1 peptide", "assay": "Peptide-specific antibody response in sera by ELISA after immunization with KLH conjugates, antigen ApoB1 peptide", "type": "in vivo, mice", "source_text": "as §1"}, "[3]": {"test_system": "macrophages (CD68+ cells)", "assay": "Infiltration of macrophages into atherosclerotic lesions, anti-CD68 staining", "type": "in vivo", "details": "compared with mice immunized with either HSP60 or apoB1 alone; FIG. 6", "source_text": "Infiltration of macrophages into atherosclerotic lesions in the Apob^tm2SgyLdlr^tm1Her/J mice were quantified by staining with anti-CD68. Sections of the tissue sample (5 μm thick) were stained with hematoxylin-eosin (H.E.) and examined under a light microscope. Macrophage levels were compared in a sample obtained from mice immunized with adjuvant only (control), mice immunized with ApoB only, mice immunized with hHSP60 only and mice immunized with the bi-specific ApoB1+hHSP60 immunogen."}}, "note": "“And” between values parts separate entries of the source, which are not always exact repeats. Equal values may be shown once. Ends that are not written are not given here."}
{"substance": "ApoB1 + hHSP60-KLH: combination of ApoB1 and hHSP60 peptides conjugated to KLH, bi-specific immunogen (chain 1 IEIGLEGKGFEPTLEALFGK; chain 2 AELKKQSKPVT; also: peptides conjugated to KLH; listed as Homo sapiens)", "values": [{"measurement": "OD at 1:100 serum dilution, ELISA antigen hHSP60 peptide, Mean", "setting": "hHSP60 peptide; Week 8, group mean", "value": 1.366}, {"measurement": "OD at 1:100 serum dilution, ELISA antigen hHSP60 peptide", "setting": "hHSP60 peptide; Week 8, individual mouse", "value": "1.368 and 1.405 and 1.556 and 1.282 and 1.215 and 1.338 and 1.396"}, {"measurement": "Immune response on KO- mouse model", "setting": "[1]", "value": "Very Good (very good immunoreactivity ((titre 3200))"}, {"measurement": "protection from progression of atherosclerotic lesion", "setting": "[2]; LDL receptor-deficient mice expressing ApoB-100", "value": "synergistic protection"}, {"measurement": "atherosclerotic lesions in the aortic sinus smaller in size than in control mice", "setting": "[2]; vs adjuvant control, high-fat diet for 7 weeks", "value": 41.34, "unit": "%"}, {"measurement": "OD at 1:100 serum dilution, ELISA antigen ApoB1 peptide, Mean", "setting": "ApoB1 peptide; Week 8, group mean", "value": 1.333}, {"measurement": "OD at 1:100 serum dilution, ELISA antigen ApoB1 peptide", "setting": "ApoB1 peptide; Week 8, individual mouse", "value": "1.227 and 1.546 and 1.449 and 1.437 and 1.142 and 1.229 and 1.303"}, {"measurement": "number of macrophages (CD68+ cells) found within lesions of atherosclerosis", "setting": "[3]", "value": "fewer"}]}
